According to US10914726B2, “Method for evaluating protrusion-forming ability of cell spheroids” (priority 2017, dated 2021):

How the values were obtained:
MDA-MB231 cells [1] = assay: Live/dead determination of gel-embedded cell spheroids treated with anticancer agents; format: cell-based, human; settings: 48 hours, Batimastat 4 μM, Staurosporine 1 μM; for number of dead cells (share of cells) / Number of Dead cells / Number of Living cells: MDA-MB231 spheroid in Matrigel; for Number of Dead cells: green fluorescence cell nuclei counted; for Number of Living cells: red fluorescence cell nuclei counted
Description: (§1) The protrusion-forming ability of the cell spheroids of the cancer cells treated with various anticancer agents was examined. As the cancer cells, MDA-MB231 cells of a cultured cell strain established from a human breast cancer cells were used. MDA-MB 231 cells were cultured under a condition with a temperature of 37° C. and a CO2 concentration of 5 vol % in a culture medium of DMEM containing 10% FBS.
(§2) Two thousand MDA-MB 231 cells and 5 μL of 10×Spheroid Formation ECM (manufactured by Trevigen, Inc.) were mixed in a culture medium to prepare a cancer cell solution of which the final amount was adjusted to 50 μL using DMEM (phenol red free), and then 50 μL of the cancer cell solution was injected into one well of the U bottom plate for forming a cell spheroid “Prime Surface (registered trade mark) U plate” (manufactured by Sumitomo Bakelite Co., LTD.), followed by culturing the cells for 72 hours to form cell spheroids.
(§3) The culture medium was removed from the U bottom plate as much as possible by suction while paying attention not to suck the spheroids, followed by carefully adding 100 μL of Matrigel (manufactured by Corning Incorporated) to the well. The U bottom plate was allowed to stand in an incubator at 37° C. for 1 hour, and the gel was cured to construct a cell spheroid embedded in a gel.
100 μL of culture mediums containing L-Sulforaphane (final concentration: 10 μM), Batimastat (final concentration: 4 μM), Mitomycin C (final concentration: 10 μM), Paclitaxel (final concentration: 4 μM), or Staurosporine (final concentration: 1 μM) was added on the gel in which the cell spheroids were embedded, and then 0.1 μL ( 1/1000 of the culture medium amount) of “Nuclear ID green/red cell viability reagent” (manufactured by Enzo Life Science, Inc.) was further added thereto, followed by culturing them for 48 hours to infiltrate. By adding the live/dead determination reagent, the living cells were stained with red fluorescence and the dead cells were stained with green fluorescence. As a control, a cultivation in which a culture medium containing only the live/dead determination reagent was used was carried out in the same manner as the above-described cultivation except that the anticancer agents were not added.
The fluorescently labeled samples prepared in the above-described sections <Anticancer Agent Treatment and Treatment for Live/dead Determination> and <Anticancer Agent Treatment and Actin Staining> were imaged with a confocal laser microscope “FV 1200” (manufactured by Olympus Corporation). A 20-fold objective lens ([…]×20) was used to image, and the Z-slice interval was 2 μm. The total number of Z-slices was 60 to 100.
The series of plane tomographic image groups obtained by imaging the respective fluorescently labeled samples were superimposed to construct a stereoscopic image. The obtained stereoscopic image was binarized to obtain a binarized image.
For the binarized images obtained from the fluorescently labeled samples treated with the live/dead determination reagent, the number of cell nuclei of red fluorescence and green fluorescent were measured.

MDA-MB231 cells [2] = assay: Evaluation of protrusion-forming ability of cell spheroids from stereoscopic image (central sphere volume ratio); format: cell-based, human; settings: 48 hours, L-Sulforaphane 10 μM, Batimastat 4 μM, Mitomycin C 10 μM, Paclitaxel 4 μM, Staurosporine 1 μM
Description: as §1, §2
as §3, with “gel. […]” for “gel.”

CNC(=O)[C@H](Cc1ccccc1)NC(=O)[C@H](CC(C)C)[C@H](CSc1cccs1)C(=O)NO [Batimastat]
number of dead cells (share of cells) (MDA-MB231 cells [1]): about 24% | Number of Dead cells (MDA-MB231 cells [1]): 562 | Number of Living cells (MDA-MB231 cells [1]): 1738

CO[C@@]12[C@H](COC(N)=O)C3=C(C(=O)C(C)=C(N)C3=O)N1C[C@@H]1N[C@@H]12 [Mitomycin C]
central sphere volume ratio ([volume of non-protrusion part]/[total volume of cell spheroid]) from stereoscopic image (MDA-MB231 cells [2]; FIG. 3, actin staining): higher central sphere volume ratio as compared with the remaining three anticancer agent-treated samples | protrusion formation / protrusion-forming ability (MDA-MB231 cells [2]; stereoscopic image): suppressed more strongly

CN[C@@H]1C[C@H]2O[C@@](C)([C@@H]1OC)n1c3ccccc3c3c4c(c5c6ccccc6n2c5c31)C(=O)NC4 [Staurosporine]
number of dead cells (share of cells) (MDA-MB231 cells [1]): about 70% | Number of Dead cells (MDA-MB231 cells [1]): 1631 ± 414 | Number of Living cells (MDA-MB231 cells [1]): 576 ± 67 | induction of cell death (MDA-MB231 cells [1]; MDA-MB231 spheroid): cell death was induced
